Measured values published in PMC9000318, “Identification and Validation of a New Peptide Targeting Pancreatic Beta Cells” (Molecules, 2022).
Ends that are not written are not given here. * marks the point of attachment. FITC = O=C1OC2(c3ccc(O)cc3Oc3cc(O)ccc32)c2ccc(NC(=S)*)cc21

Columns and labels:
[1] = tested on: primary islet cells
Source text: Mice insulinoma cell line MIN6 were obtained from the Academy of Sciences Cell Bank of Shanghai and routinely cultured in RPMI-1640 medium (Gibco, Shanghai, China), supplemented with 10% (v/v) fetal bovine serum (FBS) and 1% (v/v) penicillin-streptomycin. The murine pancreatic cancer cell line KPC and the hepatocellular carcinoma cell line (HCC-LM3) were kindly provided by Tingbo Liang’s Research Group (Zhejiang University, Hangzhou, China). KPC cells were maintained in RPMI-1640 medium (Gibco, Shanghai, China), supplemented with 20% FBS, 1% sodium pyruvate (100×), and 1% MEM Non-Essential Amino Acids (NEAA 100×). HCC-LM3 cells were maintained in Dulbecco’s modified Eagle’s medium (DMEM; Gibco, Shanghai, China) with 10% FBS and 1% (v/v) penicillin-streptomycin. The primary islets were isolated by collagenase digestion from ICR (Institute of Cancer Research) mice and separated by density gradient centrifugation as previously described. The islets were incubated at 37 °C in 2 mL RPMI-1640 medium at a density of 100–150 islets per well in 6-well plates and maintained at 37 °C with 5% CO2.
To investigate the effect of LNTPLKS on the viability of the islet cells, different concentrations of LNTPLKS (0, 0.5, 1, 10 μM) were separately co-incubated with islet cells in 96-well plates (triplicate wells for each concentration of peptide). Twenty-four hours later, MTT was added and incubated for 4 h. DMSO was added after centrifugation and the color development was read at an OD of 570 nm. Islet cells were incubated with different concentrations of peptides for 24 h at 37 °C. The supernatant was discarded, cells were rinsed twice with PBS, KRB buffer containing 3.3 mM glucose was added, and the cells were incubated for 30 min at 37 °C. The supernatant was discarded and cells were incubated with KRB buffer containing low glucose (3.3 mM) or high glucose (16.7 mM) for 1 h.

[2] = tested on: islet cells; assay: FACS binding to islet cells; format: cell-based, ICR mouse; details: flow cytometry, FITC-labeled peptide, 2 h incubation, islets digested to single cells
Method: (§1) Purified FITC-labeled candidate peptides were used for the peptide-based immunofluorescence assay to confirm the selective binding of the selected peptides to the used cells. FITC-labeled peptide-based immunofluorescence assay was performed, and FITC-labeled peptide (1 μM) was added to each well and then incubated for 2 h at room temperature. The wells were washed with PBS three times and directly mounted with vectashield mounting medium after DAPI staining. The cells were visualized under fluorescence microscope. In addition, to determine the binding location of the peptide, MIN6 cells were labeled with LNTPLKS-FITC and further observed under confocal microscope. For fluorescence activated cell sorting, purified islets and KPC cells were incubated in 6 well plates; 24 h later, FITC-labeled peptide was added with a final concentration of 1 μM. After 2 h of incubation, cells were washed with PBS three times and harvested for FACS to quantitatively analyze the binding affinity of the peptide to the different cell types (islets was digested to single cells before FACS analyzing).

[3] = tested on: KPC cells; assay: FACS binding to KPC cells; format: cell-based, murine; details: flow cytometry, FITC-labeled peptide, 2 h incubation
Method: as §1

[4] = tested on: islets in pancreas cryosections; assay: Binding to in situ islets, mouse pancreas cryosections; set-up: species or system ICR mice; details: 2 h incubation, anti-insulin counterstain, fluorescence microscope
Method: (§2) In order to evaluate whether the LNTPLKS-FITC peptide could directly bind islets within the pancreas, the pancreas of ICR mice was collected and frozen sections were prepared. The cryosections were incubated with anti-insulin solution and LNTPLKS-FITC 2 h after treatment with BSA, followed by observation under fluorescence microscope. To determine whether LNTPLKS could bind to human islet, staining of paraffin-embedded human tissue sections were performed. Briefly, slices were deparaffinized and subsequently permeabilized by heating in antigen-unmasking solutions. After blocking with 2% BSA, slices were incubated with anti-insulin antibody at 4 °C overnight. Cy3-conjugated goat anti-mouse IgG (1:300 dilutions) antibody was incubated for 50 min at 24 °C. Then, the slices were incubated with DAPI and LNTPLKS-FITC or control peptide for 1 h at room temperature. Tissue slides were analyzed using a fluorescence microscope. To further confirm the specificity of peptide to islet, we transplanted islets under renal capsule of the ICR mice. Kidney slices containing islets grafts were prepared and incubated with LNTPLKS-FITC peptide. After 2 h of incubation, the slices were observed under fluorescence microscope.

[5] = tested on: islets grafts; assay: Binding to islet grafts under the renal capsule, kidney slices; details: islets transplanted under renal capsule of ICR mice, slices incubated 2 h
Method: as §2

[6] = tested on: MIN6 cells; assay: FITC-labeled peptide-based immunofluorescence assay (ICC) on MIN6 cells; set-up: species or system mice; details: FITC-labeled peptide 1 μM, 2 h, room temperature; fluorescence microscope; KPC cells as cell control
Method: as §1

[7] = tested on: MIN6 cells; assay: Confocal microscopy, localization of the peptide in MIN6 cells; format: cell-based, mice; details: DAPI counterstain
Method: as §1

[8] = tested on: islet cells; assay: FITC-labeled peptide-based immunofluorescence assay on purified islets; format: cell-based, ICR mouse; details: fluorescence microscope
Method: as §1

[9] = tested on: human islets; assay: Binding to human islets, paraffin-embedded pancreatic tissue sections; details: paraffin sections from a donor, co-stained with anti-insulin antibody, 1 h room temperature
Method: as §2

[10] = tested on: pancreatic islet; assay: In vivo targeting of pancreatic islets after tail vein injection; set-up: species or system mice; details: pancreas sliced, data not shown
Source text: The final goal of developing a beta cell-specific molecular probe is to provide a non-invasive, in vivo imaging method for measuring BCM during diabetes progression and tracking islet grafts after islet transplantation, so that necessary and timely intervention can be performed. Therefore, all presumed beta cell-specific probes screened in vitro have to be validated by in vivo studies. As the first step, we tested islet specificity using pancreatic slices and islet graft-containing slices. […] However, when it comes to in vivo studies, the results were obscure. We injected FITC-conjugated LNTPLKS peptide into the mice via tail vein and the pancreas was then sliced to detect the targeting of the peptide in the pancreatic islet. The fluorescence within pancreas was rather weak (data not shown). The unsatisfied result might be attributed to the degradation of the peptide in the body. Increasing peptide stability and its circulation time will facilitate cellular uptake. In the following study, the peptide LNTPLKS will be further processed by chemical modification (such as PEGylation) to protect the peptide from degradation in vivo without changing the targeting ability of the peptide, or by conjugating it with other imaging materials (iron oxide nanoparticle, radionuclide, etc.) to be monitored by MR, SPECT, or other imaging modalities with high sensitivity.

[11] = tested on: MIN6 tumor; details: mouse, in vivo, 5 mg/kg
Source text: (§3) In total, 2 × 10^6 MIN6 cells and HCC-LM3 cells were subcutaneously inoculated in male nude mice for 4 weeks separately. After 16 days, the tumor grew to approximately 1.0 cm^3. […] The tumor, spleen, kidney and liver were harvested and their fluorescence intensity was quantified by in vivo imaging system (IVIS).

[12] = tested on: LM3 tumor; details: mouse, in vivo, 5 mg/kg
Source text: as §3

Substance	viability of the islet cells ([1]; MTT, 24 h co-incubation, peptide concentration between 500 and 1 μM, triplicate wells)	glucose-stimulated insulin secretion (GSIS) ([1]; peptide 24 h at 37 °C, between 500 and 1 μM, KRB buffer high glucose 16.7 mM, 1 h, insulin ELISA, three tests)	basical insulin secretion (BIS) ([1]; peptide 24 h at 37 °C, between 500 and 1 μM, KRB buffer low glucose 3.3 mM, 1 h, insulin ELISA, three tests)	mean fluorescence peak point, islet group [2]	mean fluorescence peak point, KPC cell group [3]	fluorescence of islets in mouse pancreas cryosections [4]	fluorescence of islets grafts in kidney slices [5]	FITC signal in MIN6 cells [6]	localization of the peptide on MIN6 cells [7]	affinity for the islet cells (fluorescent images) [8]	binding to human islets in pancreatic tissue sections [9]	fluorescence within pancreas after injection [10]	fluorescence average counts, kidney [11]	fluorescence average counts, liver [11]	fluorescence average counts, spleen [11]	fluorescence average counts, tumor [11]	fluorescence average counts, kidney [12]	fluorescence average counts, liver [12]	fluorescence average counts, spleen [12]	fluorescence average counts, tumor [12]
LNTPLKS [seven-amino acid peptide targeting beta cell line MIN6, screened by phage display]	only slightly affected	only slightly affected	only slightly affected	shifted to the right side	no such shift															
SPPTGIN-FITC [random peptide SPPTGIN conjugated with FITC at the N-terminus, negative control, reference compound]						no fluorescent signal was merged with the anti-insulin signal	no fluorescence was observed													
{FITC}-LNTPLKS [LNTPLKS-FITC, LNTPLKS conjugated with fluorescein isothiocyanate (FITC) at the N-terminus]						fluorescent, whereas the surrounding exocrine tissues were not	fluorescent	significantly higher FITC signal	internalized to the cytoplasm	high affinity	identifiable within the islets and co-localized with insulin-producing cells	rather weak	1.14 × 10^3 counts	1.81 × 10^3 counts	4.84 × 10^2 counts	1.80 × 10^3 counts	1.20 × 10^3 counts	2.15 × 10^3 counts	5.24 × 10^2 counts	9.47 × 10^2 counts
